The IC50 is the concentration that inhibits the measured activity by half. The Ki is the equilibrium dissociation constant of an inhibitor or competing ligand from its target.

This is an account of results in PMC6471523, “Biological Evaluation and Docking Analysis of Potent BACE1 Inhibitors from Boesenbergia rotunda” (Nutrients, 2019).

In series [1] the target is T1, BACE1 (Homo sapiens, UniProt P56817).
T1 construct: purchased Invitrogen (Pan Vera, Madison, WI, USA)
Kind of series: In vitro BACE1 enzyme inhibitory assay (fluorescence). It counts as biochemical. As to conditions: for IC50: 60 min, 25 °C, pH 4.5, mean ± SD of three experiments, read-out: IC50 (mean ± SD) against BACE1.
Method: Enzyme assays for BACE1, TACE, chymotrypsin, trypsin, and elastase were carried out according to previously described methods [27]. Briefly, reaction mixtures containing human recombinant BACE1 (1.0 U/mL), a specific substrate (Rh-[sequence]-Quencher in 50 mM ammonium bicarbonate), and samples dissolved in an assay buffer (50 mM sodium acetate, pH 4.5) were incubated for 60 min at 25 °C in well plates. […] The inhibition ratio was obtained using the following equation:Inhibition (%) = [1 − (S − S0)/(C − C0)] × 100 where C was the fluorescence of control (enzyme, assay buffer, and substrate) after 60 min of incubation, C0 was the fluorescence of control at time 0, S was the fluorescence of tested samples (enzyme, sample solution, and substrate) after 60 min of incubation, and S0 was the fluorescence of the tested samples at time 0.

Series [2] addresses T1, BACE1. Kind of series: BACE1 inhibition kinetics (Dixon and Lineweaver–Burk plots). As to conditions: for Inhibition Mode: Dixon and Lineweaver–Burk plots; for Ki: Dixon plot. The format is biochemical. As for the experimental part: The dissociation constant (Ki) was obtained by Dixon plot and maximum reaction velocity (Vmax) and Michaelis–Menten constant (Km) values were determined by Lineweaver–Burk plot using SigmaPlot™ version 12.3 (Systat Software, Inc., San Jose, CA, USA).
The type of inhibition and kinetic analysis was determined using a Michaelis–Menten curve, Dixon plot, and Lineweaver–Burk plot (Figure 2). The three lines of the Dixon plots intersected on the x-axis of the same plot (Figure 2b,e,h). […] This pattern indicated non-competitive inhibitory activity against BACE1, thereby interacting with locations other than the active binding site for these compounds. For noncompetitive inhibition of enzymes, the Ki value of inhibitor is essentially the same numerical value as the IC50 [29].

Series [3] deals with T2, human recombinant TACE.
T2 construct: purchased R&D Systems (Minneapolis, MN, USA)
Kind of series: TACE (α-secretase) enzyme inhibitory assay. It counts as biochemical. As for the experimental part:
A human recombinant TACE (0.1 ppm in 25 mM Tris buffer), the substrate (APP peptide […] using EDANS/DABCYL), and samples were dissolved in an assay buffer, which were then combined and incubated for 60 min in the dark at 25 °C. The increase in fluorescence intensity produced by substrate hydrolysis was measured by using a microplate reader with excitation and emission wavelengths of 320 and 405 nm, respectively.

Series [4] relates to trypsin. Kind of series: Trypsin absorbance inhibition assay. It counts as biochemical. As for the experimental part: (§1) Absorbance assays for trypsin, chymotrypsin, and elastase were estimated using N-benzoyl-ʟ-Arg-pNA, N-benzoyl-ʟ-Tyr-pNA, and N-succinyl-Ala-Ala-Ala-pNA as substrates, respectively. Enzyme, Tris-HCl buffer (0.05 M, in 0.02 M CaCl2, pH 8.2), and tested samples were incubated for 10 min at 25 °C then added to the substrate for 30 min at 37 °C. The absorbance was recorded at 410 nm. The inhibition ratio was obtained using the following equation:Inhibition (%) = {[1 − (A − B)]/control} × 100 where A was the absorbance of control (enzyme, assay buffer, and substrate) after 60 min of incubation, and B was the absorbance of the tested sample (assay buffer and sample solution) after 60 min of incubation.

Series [5] deals with T3, chymotrypsin.
T3 construct: purchased Sigma-Aldrich (St. Louis, MO, USA)
Kind of series: Chymotrypsin absorbance inhibition assay. It counts as biochemical. As to the method: as §1

The test system of series [6] is T4, elastase.
T4 construct: purchased Sigma-Aldrich (St. Louis, MO, USA)
Nature of the series: Elastase absorbance inhibition assay. The format is biochemical. As to the method: as §1

The subject of series [7] is HIV-1 protease. Set-up: method as in earlier work. As to conditions: cited from earlier work.
Series [8] relates to BBB. To be noted: in vitro study; cited from earlier work.
Series [9] concerns rat model of global cerebral ischemia-reperfusion. To be noted: oral, 10 mg/kg, 7 days; cited from earlier work.
In series [10] the test system is intracerebroventricular Aβ25–35-injected mice. As to conditions: oral, 20 mg/kg, 8 days; cited from earlier work.
The subject of series [11] is APP/PS1 transgenic mouse model. As to conditions: 40 mg/kg, 3-month period; cited from earlier work.
For series [12], the system named is Wister rats. As to conditions: 100 mg/kg, 7 days; cited from earlier work.
Series [13] can be described thus: Physicochemical properties for BBB permeability prediction. As to conditions: inferred from MW, PSA and clog P. The source says: However, few BACE1 inhibitors have been marketed to treat AD due to the difficulty in developing therapeutic agents that can efficiently cross the BBB and reach appropriate concentrations in the cerebral parenchyma, and, moreover, can do so without side effects. Recently, QSAR study approaches have been used to generate predictive models for BBB permeability. […] Cardamonin has a MW of 270.28, a PSA value calculated as 66.76, and a clog P of 4.54, obtained by determining the partition coefficient between n-octanol and water.

Details of series [14]: method as in PMID 28271112. To be noted: calculated; in Å2 (unit assumed); cited from earlier work.
Details of series [15]: method as in PMID 29066742. To be noted: 10 mg/kg, 30 weeks; cited from earlier work.

In brackets after ≈: the same amount, converted by molar mass.

T1 sequence (P56817 46-501): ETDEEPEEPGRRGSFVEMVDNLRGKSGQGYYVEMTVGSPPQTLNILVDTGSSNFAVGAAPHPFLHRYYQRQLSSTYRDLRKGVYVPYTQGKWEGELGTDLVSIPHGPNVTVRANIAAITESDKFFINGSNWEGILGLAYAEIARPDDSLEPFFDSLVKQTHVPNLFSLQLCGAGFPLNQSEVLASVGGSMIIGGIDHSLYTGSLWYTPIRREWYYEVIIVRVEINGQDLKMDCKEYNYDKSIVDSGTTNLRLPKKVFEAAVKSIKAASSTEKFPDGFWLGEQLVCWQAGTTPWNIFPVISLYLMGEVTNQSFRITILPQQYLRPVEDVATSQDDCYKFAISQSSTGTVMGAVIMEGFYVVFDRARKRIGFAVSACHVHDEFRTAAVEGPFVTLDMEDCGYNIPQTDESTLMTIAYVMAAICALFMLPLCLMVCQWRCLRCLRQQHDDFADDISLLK

With `O=C1CC(c2ccccc2)Oc2cc(O)cc(O)c21` (centres unmarked) [Pinocembrin, 5,7-dihydroxyflavanone], the IC50 in [1] came to 27 ± 2.12 µM. The “Inhibition Mode” value in [2] was “Noncompetitive”. This compound also returned a Ki in [2] of 29.3 µM. The “Inhibitory activity (%) TACE” value worked out at 5.15 ± 0.98% in series [3] (sample 10 μM) and 6.95 ± 1.52% in [3] (sample 100 μM). Also, the “Inhibitory activity (%) Trypsin” value in series [4] (sample 10 μM) amounted to 4.35 ± 0.26%; in [4] (sample 100 μM), 4.96 ± 0.27%. The “Inhibitory activity (%) Chymotrypsin” value stood at 7.18 ± 1.87% in series [5] (sample 10 μM) and 8.61 ± 1.09% in [5] (sample 100 μM). Also, the results for the “Inhibitory activity (%) Elastase” value in series [6] (sample 10 μM) and in series [6] (sample 100 μM) were 3.24 ± 0.19% and 2.56 ± 0.08%, respectively. Moreover, the “IC50 HIV-1 protease activity” value in series [7] was above 100 µg/mL. Besides, the “BBB crossing in vitro” value in series [8] is “could cross the BBB by passive transport partly through P-glycoprotein”. In addition, the “Effect on hippocampal inflammation, oxidative stress and apoptosis” value in [9] was “suppressed hippocampal inflammation, oxidative stress, and apoptosis”. Further, the “Effect on cognitive impairment” value in [10] is on record as “significantly improved cognitive impairment”. For the same compound, the “Effect on cognitive deficits and neurovascular unit” value in series [11] is “attenuated cognitive deficits and protected the neurovascular unit”. In series [12], the “Toxicity or mutagenic effects after oral administration” value is “did not induce any toxicity or mutagenic effects”.
`COc1cc(O)c2c(c1)OC(c1ccccc1)CC2=O` (centres unmarked) [Pinostrobin, 5-hydroxy-7methoxyflavanone]: the IC50 in series [1] came out at 28.4 ± 1.96 µM. In addition, the “Inhibition Mode” value in [2] is “Noncompetitive”. The compound also registered a Ki in series [2] of 30.9 µM. In addition, the “Inhibitory activity (%) TACE” value in series [3] (sample 10 μM) is 8.53 ± 1.05%; in [3] (sample 100 μM), 9.19 ± 1.20%. Further, the “Inhibitory activity (%) Trypsin” value in series [4] (sample 10 μM) amounted to 3.19 ± 0.16%; in series [4] (sample 100 μM), 1.52 ± 0.05%. The “Inhibitory activity (%) Chymotrypsin” value is 3.29 ± 0.25% in series [5] (sample 10 μM) and 5.41 ± 0.49% in series [5] (sample 100 μM). In addition, the “Inhibitory activity (%) Elastase” value is 5.21 ± 0.41% in series [6] (sample 10 μM) and 2.63 ± 0.37% in [6] (sample 100 μM). Moreover, in series [7], the “IC50 HIV-1 protease activity” value was above 100 µg/mL. Moreover, in series [12], the “Toxicity or mutagenic effects after oral administration” value is on record as “did not induce any toxicity or mutagenic effects”.
On to `COc1cc(O)cc(O)c1C(=O)/C=C/c1ccccc1` [Cardamonin, 2′,4′-dihydroxy-6′-methoxychalcone], for which, in [1], the IC50 was 4.35 ± 0.38 µM. The “BACE1 IC50 relative to resveratrol” value in [1] (comparison of IC50 values) is recorded as “three-fold higher”. Also, in [1] (comparison of IC50 values), the “BACE1 inhibition relative to pinocembrin and pinostrobin” value is “six-fold more effective”. For the same compound, in [2], the “Inhibition Mode” value was “Noncompetitive”. This compound also gave a Ki in series [2] of 5.1 µM. Moreover, the “Inhibitory activity (%) TACE” value was found to be 1.38 ± 0.36% in series [3] (sample 50 μM) and 2.69 ± 1.44% in [3] (sample 100 μM). Also, the “Inhibitory activity (%) Trypsin” value was 1.13 ± 0.18% in series [4] (sample 50 μM) and 3.74 ± 0.53% in series [4] (sample 100 μM). Besides, the “Inhibitory activity (%) Chymotrypsin” value in series [5] (sample 50 μM) came to 6.20 ± 0.41%; in series [5] (sample 100 μM), 4.23 ± 0.55%. For the same compound, the “Inhibitory activity (%) Elastase” value amounted to 2.29 ± 0.41% in series [6] (sample 50 μM) and 1.41 ± 0.19% in series [6] (sample 100 μM). The “Predicted BBB crossing” value in series [13] was “predicted to cross the BBB”. The “IC50 HIV-1 protease activity” value in series [7] is 31.0 µg/mL (≈ 115 µM). For the same compound, in [14], the “polar surface area (PSA)” value is reported as 66.76. Further, the “Toxicity after chronic oral administration” value in [15] is “did not elicit any apparent toxicity”.
